Results reported in patent publication US12285393B2, “Roles of modulators of intersectin-Cdc42 signaling in Alzheimer's disease” (priority 2017, dated 2025).

Tests used:
Rac1 = target: T1, Rac1 (Mus musculus, UniProt P63001); assay: G-LISA in serum-starved Swiss 3T3 cells; format: cell-based; details: 50 μM
T1 construct: endogenous in cells; host or cells: Swiss 3T3 cells

Swiss 3T3 cells = assay: Immunofluorescence, cell morphology and bradykinin-mediated activation; format: cell-based; details: for changes to cell morphology: after 4 h of treatment, more drastic after six hours
Protocol: Immunofluorescence: Serum-starved Swiss 3T3 cells were pretreated with compound for 2 h before the addition of bradykinin (100 ng/mL) for 20 min. Cells were fixed in 4% paraformaldehyde for 15 min at RT and stored in PBS. Fixed cells were treated with 0.5% Triton for 30 min at RT, 100 mM Glycine 30 min at RT, and 10% BSA for 30 min at 37° C. Primary antibody for GM130 (1:1000, BD Biosciences, Franklin Lakes, New Jersey, United States of America) was used to probe for 1 h at RT followed by CY3-conjugated secondary antibody (1:1000) for 1 h at RT in the dark. Actin was stained with fluorescein-conjugated phalloidin (1:300). Hoechst (1:2500) was used to stain the nuclei. Coverslips were mounted onto slides using antifade medium from Life Technologies (Carlsbad, California, United States of America). Images were taken with a Zeiss Axiovert S100 microscope (Carl Zeiss; Thornwood, New York, United States of America).

[1] = Solubility profile by optical density; format: physicochemical; details: for solubility: in DM19
Description: ZCL278, ZCL279, and ZCL367 were all tested for solubility in the 5 FDA approved solvents to be used in humans. […] Results are shown below in Tables 2-4. Ratio refers to the optical density of the solution comprising the modulator compound/the optical density of the carder/solvent alone.

C57BL/6 mice = assay: Toxicity experiment, I.P. injection; format: in vivo; details: 5 minutes to 24 hours
Protocol: ZCL 278 Toxicity Experiment: Individual C57BL/6 mice of 4-6 months of age from Jackson Laboratory (Bar Harbor, Maine, United States of America) were submitted to ZCL278 treatment for 5 minutes, 30 minutes, 2 hours and 24 hours. The dosage of ZCL278 for each mouse was 0.8 mg/g body weight delivered via intraperitoneal (I.P.) injection of a 15 mg/ml solution of ZCL278 was dissolved in the sesame oil (10% DMSO).
ZCL 279 Toxicity Experiment: Individual C57BL/6 mice of 4-6 months of age from Jackson Laboratory (Bar Harbor, Maine, United States of America) were submitted to ZCL279 treatment for 5 minutes, 30 minutes, 2 hours and 24 hours. The dosage of ZCL279 for each mouse was 0.6 mg/g body weight delivered via intraperitoneal (I.P.) injection of a 15 mg/ml solution of ZCL279 was dissolved in the sesame oil (10% DMSO).
ZCL367 Toxicity Experiment: Individual C57BL/6 mice of 4-6 months of age from Jackson Laboratory (Bar Harbor, Maine, United States of America) were submitted to ZCL367 treatment for 1 hour or 2 weeks. The dosage of ZCL367 for each time period was 0.4 mg/g body weight or 0.8 mg/g body weight, delivered via I.P. injection. […] Mice were sacrificed after end of 1 hour or 2 weeks.

Cdc42 = Cdc42 (Homo sapiens, UniProt P60953); assay: Rho-GEF IC50 assay (GEF/DH domain-mediated mant-GTP binding); format: biochemical; design: purchased Cytoskeleton Inc; details: read-out: IC50, GEF/DH domain-mediated mant-GTP binding/Cdc42 activation
Protocol: Rho-GEF IC50 Assay: Rho-GEF assay (Cytoskeleton Inc., Denver, Colorado, United States of America) was conducted per manufacturer's instructions (λex=360 nm, λem=460 nm). Briefly, a solution (50 μL) of purified Rho GTPase (1 μM) and mant-GTP (1.5 μM) with or without compound (0.001-500 μM) was prepared and the absorbance monitored for 10-30 min to obtain the background/baseline. The addition of purified GEF/DH domain (0.08-0.2 μM) was carried out simultaneously and the absorbance was recorded for 30-45 min. The linear slope following the addition of the GEF was calculated and expressed as percentage of the control and plotted on an IC50 curve.

[2] = Dimethyl Sulfoxide (DMSO), RT-3 h
[3] = Polyethylene Glycol300 (PEG-300), 30%, RT-3 h
[4] = 1,2-Propanediol, 40%, 37° C., 1 hour
[5] = Dimethyl Sulfoxide (DMSO), 37° C., 1 hour
[6] = Pluronic F-68, 10%, 37° C., 1 hour
[7] = Polyethylene Glycol300 (PEG-300), 30%, 37° C., 1 hour

Chain of Cdc42 (P60953 whole entry, the tested form may be a part): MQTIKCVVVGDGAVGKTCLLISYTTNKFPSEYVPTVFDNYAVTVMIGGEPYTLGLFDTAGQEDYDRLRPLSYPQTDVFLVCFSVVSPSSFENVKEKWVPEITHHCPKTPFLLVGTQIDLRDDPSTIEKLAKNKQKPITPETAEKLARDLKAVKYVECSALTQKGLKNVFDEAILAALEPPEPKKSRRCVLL

Q: Which “effect on Rac1” value (Rac1) does the source give for Cc1cc(C)nc(NS(=O)(=O)c2ccc(NC(=S)NC(=O)COc3ccc(Br)cc3Cl)cc2)n1 [ZCL278, 4-(3-(2-(4-bromo-2-chloro-phenoxy)-acetyl)-thioureido)-N-(4,6-dimethylpyrimidin-2-yl)-benzenesulfonamide] here?
A: inhibits Rac1

Q: What about the “kind of morphology change” value (Swiss 3T3 cells; Swiss 3T3 cells) of the same compound?
A: increase in ramification

Q: And the bradykinin-mediated activation (Swiss 3T3 cells; Swiss 3T3 cells, bradykinin 100 ng/mL)?
A: inhibit bradykinin-mediated activation

Q: What about the “changes to cell morphology” value (Swiss 3T3 cells) of the same compound?
A: significant changes to cell morphology

Q: What about the “Ratio (optical density solution/solvent alone)” value ([1]; 1,2-Propanediol, 40%, RT-3 h) of the same compound?
A: 3.154

Q: What about the “optical density of solution” value ([1]; 1,2-Propanediol, 40%, RT-3 h) of the same compound?
A: 0.123

Q: And the “Ratio (optical density solution/solvent alone)” value [1, 2]?
A: 1.119

Q: What about the “optical density of solution” value [1, 2] of the same compound?
A: 0.047

Q: And the “Ratio (optical density solution/solvent alone)” value ([1]; Pluronic F-68, RT-3 h)?
A: 2.675

Q: What about the “optical density of solution” value ([1]; Pluronic F-68, RT-3 h) of the same compound?
A: 0.107

Q: And the “Ratio (optical density solution/solvent alone)” value [1, 3]?
A: 2.275

Q: What about the “optical density of solution” value [1, 3] of the same compound?
A: 0.091

Q: And the “Ratio (optical density solution/solvent alone)” value ([1]; Sesame Oil, RT-3 h)?
A: 1.395

Q: And the “optical density of solution” value ([1]; Sesame Oil, RT-3 h)?
A: 0.06

Q: What about the “Ratio (optical density solution/solvent alone)” value ([1]; Sterile Water, RT-3 h) of the same compound?
A: 2.211

Q: What about the “optical density of solution” value ([1]; Sterile Water, RT-3 h) of the same compound?
A: 0.084

Q: What about the “Ratio (optical density solution/solvent alone)” value ([1]; Tween 80, 0.4%, RT-3 h) of the same compound?
A: 1.725

Q: And the “optical density of solution” value ([1]; Tween 80, 0.4%, RT-3 h)?
A: 0.069

Q: And the “Ratio (optical density solution/solvent alone)” value ([1]; dPBS, RT-3 h)?
A: 1.795

Q: What about the “optical density of solution” value ([1]; dPBS, RT-3 h) of the same compound?
A: 0.07

Q: What about the solubility [1] of the same compound?
A: completely soluble

Q: What about the “gross anatomic toxicity (plasma, liver, kidney and brain tissues)” value (C57BL/6 mice; 0.8 mg/g body weight I.P.) of the same compound?
A: no gross anatomic toxicity

Q: What about the IC50 (Cdc42) of the same compound?
A: 7.52 µM

Q: For O=S(=O)(Nc1ccccc1O)c1ccc2oc3ccc(S(=O)(=O)Nc4ccccc4O)cc3c2c1 [ZCL279, N^2,N^8-bis(2-hydroxyphenyl)dibenzo[b,d]furan-2,8-disulfonamide], which “kind of morphology change” value (Swiss 3T3 cells; Swiss 3T3 cells) is on record?
A: reduction in cell body size and formation of elongated processes

Q: What about the “changes to cell morphology” value (Swiss 3T3 cells) of the same compound?
A: significant changes to cell morphology

Q: And the “Ratio (optical density solution/solvent alone)” value [1, 4]?
A: 2.359

Q: And the “optical density of solution” value [1, 4]?
A: 0.092

Q: What about the “Ratio (optical density solution/solvent alone)” value [1, 5] of the same compound?
A: 1.071

Q: What about the “optical density of solution” value [1, 5] of the same compound?
A: 0.045

Q: What about the “Ratio (optical density solution/solvent alone)” value [1, 6] of the same compound?
A: 2.667

Q: And the “optical density of solution” value [1, 6]?
A: 0.104

Q: And the “Ratio (optical density solution/solvent alone)” value [1, 7]?
A: 3.762

Q: And the “optical density of solution” value [1, 7]?
A: 0.158

Q: And the “Ratio (optical density solution/solvent alone)” value ([1]; Sesame Oil, 37° C., 1 hour)?
A: 1.872

Q: And the “optical density of solution” value ([1]; Sesame Oil, 37° C., 1 hour)?
A: 0.088

Q: And the “Ratio (optical density solution/solvent alone)” value ([1]; Sterile Water, 37° C., 1 hour)?
A: 6.158

Q: And the “optical density of solution” value ([1]; Sterile Water, 37° C., 1 hour)?
A: 0.234

Q: What about the “Ratio (optical density solution/solvent alone)” value ([1]; Tween-80, 0.4%, 37° C., 1 hour) of the same compound?
A: 3.105

Q: What about the “optical density of solution” value ([1]; Tween-80, 0.4%, 37° C., 1 hour) of the same compound?
A: 0.118

Q: And the “Ratio (optical density solution/solvent alone)” value ([1]; dPBS, 37° C., 1 hour)?
A: 3.846

Q: What about the “optical density of solution” value ([1]; dPBS, 37° C., 1 hour) of the same compound?
A: 0.15

Q: What about the solubility [1] of the same compound?
A: completely soluble

Q: And the “gross anatomic toxicity (plasma, liver, kidney and brain tissues)” value (C57BL/6 mice; 0.6 mg/g body weight I.P.)?
A: no gross anatomic toxicity
